Tested on: periosteal explants
Test: In vitro periosteal chondrogenesis, organ culture model in alginate gel suspension
Assay type: cell-based
Details: 10 ng/ml; for Chondrogenesis (H & E; Safranin-O): first two weeks
Procedure: A further in vitro study of periosteal chondrogenesis has been performed to evaluate an organ culture model using an alginate gel suspension. Briefly, periosteal explants of approximate dimensions 3×3 mm were cultured in an alginate gel suspension and supplemented with either TGF-β1, b-FGF, a combination of the two, or in the absence of growth factors. b-FGF and TGF-β1 were administered at a concentration of 10 ng/ml every two days at each media change for the first week and first two weeks of in vitro culture respectively.
Additionally the cultures were supplemented daily with 50 μg/ml ascorbic acid for the first four weeks of in vitro culture. Results from histological analysis (H & E; and Safranin-O staining) of the explants performed at 1, 3, 6 and 8 week timepoints, were similar to those from the organ culture model utilizing the agarose gel (data not shown). Namely, after a period of 1 week in vitro culture, none of the explants stained positive for glycosaminoglycans using Safranin-O staining. Significant neo-chondrogenesis from the periosteum was not observed for explants cultured in the absence of added growth factors or supplemented with b-FGF alone over the period of 8 weeks. […] Safranin-O stains of typical periosteal explants after 1, 3, 6 and 8 weeks in vitro culture when b-FGF and TGF-β1 were administered for the first week and first two weeks of in vitro culture were observed.

Substance	Chondrogenesis (H & E; Safranin-O) (after 3 weeks in vitro culture)	Chondrogenesis (H & E; Safranin-O) (after 8 weeks in vitro culture)	Significant neo-chondrogenesis from the periosteum (H & E; Safranin-O) (over the period of 8 weeks in vitro culture)
TGF-β1: transforming growth factor	apparent	most pronounced	
b-FGF: basic fibroblast growth factor			not observed
